Source: US9637518B2, “IAP antagonists” (BRISTOL-MYERS SQUIBB COMPANY, priority 2014, dated 2017)
pIC50: −log10 of the molar value.

Columns and labels:
His-BIR3 (241-356, XIAP) = target: T1, His-BIR3 (241-356, XIAP) (Homo sapiens, UniProt P98170); assay: XIAP-BIR3/SMAC Homogeneous Time Resolved Fluorescence (HTRF) Assay; assay type: binding; settings: 1 nM N-His-BIR3, 5 nM fluorescein labeled SMAC peptide
T1 construct: His-BIR3 (241-356, XIAP)
Experimental: A. XIAP-BIR3/SMAC Homogeneous Time Resolved Fluorescence (HTRF) Assay
Assays were performed in black, flat-bottom, 384-well plates. The final assay volume was 50 μL prepared from additions of His-BIR3 (241-356, XIAP), fluorescein labeled SMAC peptide, and test compounds in assay buffer consisting of 20 mM Sodium Phosphate, 1 mM EDTA, 50 mM NaCl, 50 μg/ml BSA, and 0.05% PLURONIC® F68. The reaction was incubated at room temperature for 60 minutes, following which 10 μl of mouse anti-6×His-terbium labeled Fab (Medarex, Cis-bio) was added to the reaction (40 μl) for an additional 30 minute incubation. The HTRF signal, ratio of fluorescence intensities at emission wavelengths for fluorescein acceptor (520 nm) and terbium donor (615 nm), the 520/615 ratio, generated by the reaction was then measured on the Envision Plate Reader Inhibition data were calculated from the 520/615 ratio generated by the no protein control reactions for 100% inhibition and vehicle-only reactions for 0% inhibition. The final concentration of reagents in the assay was 1 nM N-His-BIR3 (241-356, XIAP), 5 nM fluorescein labeled SMAC peptide, 0.25 nM anti-His-Tb-Fab, and 0.1% DMSO. Dose response curves were generated to determine the concentration required for inhibiting 50% of the HTRF signal (IC50). Compounds were dissolved at 3 mM in dimethylsulfoxide (DMSO) and evaluated at eleven serially diluted concentrations. IC50 and Ki values were derived by non-linear regression analysis.

[1] = target: T2, His-BIR2-3 (125-356, C202A/C213G, XIAP) (Homo sapiens, UniProt P98170, C202A/C213G); assay: XIAP-BIR2-3 dimeric SMAC Peptide Homogeneous Time Resolved Fluorescence (HTRF) Assay; assay type: binding; settings: 0.5 nM N-His-BIR2-3, 20 nM fluorescein labeled dimeric SMAC peptide
T2 construct: His-BIR2-3 (125-356, C202A/C213G, XIAP)
T2 sequence (P98170 125-356 C202A/C213G): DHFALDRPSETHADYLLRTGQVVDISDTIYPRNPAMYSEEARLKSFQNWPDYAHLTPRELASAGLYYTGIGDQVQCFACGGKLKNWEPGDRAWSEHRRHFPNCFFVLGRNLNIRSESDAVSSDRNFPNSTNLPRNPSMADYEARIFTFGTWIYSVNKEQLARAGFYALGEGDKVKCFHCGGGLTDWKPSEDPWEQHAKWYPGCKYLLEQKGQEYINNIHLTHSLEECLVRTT
Experimental: B. XIAP-BIR2-3 dimeric SMAC Peptide Homogeneous Time Resolved Fluorescence (HTRF) Assay
Assays were performed in black, flat-bottom, 384-well plates. The final assay volume was 50 μL prepared from additions of His-BIR2-3 (125-356, C202A/C213G, XIAP), fluorescein labeled dimeric SMAC peptide, and test compounds in assay buffer consisting of 20 mM Sodium Phosphate, 1 mM EDTA, 50 mM NaCl, 50 μg/ml BSA, and 0.05% PLURONIC® F68. The reaction was incubated at room temperature for 60 minutes, following which 10 μl of mouse anti-6×His-Tb IgG (Medarex, Cis-bio) was added to the reaction (40 μl) for an additional 30 minute incubation. The HTRF signal, ratio of fluorescence intensities at emission wavelengths for fluorescein acceptor (520 nm) and terbium donor (615 nm), the 520/615 ratio, generated by the reaction was then measured on the Envision Plate Reader. Inhibition data were calculated from the 520/615 ratio generated by the no protein control reactions for 100% inhibition and vehicle-only reactions for 0% inhibition. The final concentration of reagents in the assay was 0.5 nM N-His-BIR2-3(125-356, C202A/C213G, XIAP), 20 nM fluorescein labeled dimeric SMAC peptide, 0.25 nM anti-His-Tb-Fab, and 0.1% DMSO. Dose response curves were generated to determine the concentration required for inhibiting 50% of the HTRF signal (IC50). Compounds were dissolved at 3 mM in dimethylsulfoxide (DMSO) and evaluated at eleven serially diluted concentrations. IC50 and Ki values were derived by non-linear regression analysis.

T1 sequence (P98170 241-356): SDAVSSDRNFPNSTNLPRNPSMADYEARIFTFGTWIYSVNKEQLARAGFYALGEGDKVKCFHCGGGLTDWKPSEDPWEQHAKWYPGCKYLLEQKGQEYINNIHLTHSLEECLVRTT

SMILES	pIC50 (His-BIR3 (241-356, XIAP))	pIC50 [1]
CN[C@@H](C)C(=O)N[C@H](C(=O)N1C[C@@H](NC(=O)c2ccc(C(=O)Nc3ccc(C[C@H](NC(=O)[C@@H](NC(=O)[C@H](C)NC)C(C)(C)SC)C(=O)N[C@@H]4CCCc5ccccc54)cc3)cc2)C[C@H]1C(=O)N[C@@H]1CCCc2ccccc21)C(C)(C)C [Example 4, N^1-((3S,5S)-1-((S)-3,3-Dimethyl-2-((S)-2-(methylamino)propanamido)butanoyl)-5-(((R)-1,2,3,4-tetrahydronaphthalen-1-yl)carbamoyl)pyrrolidin-3-yl)-N^4-(4-((S)-2-((R)-3-methyl-2-((S)-2-(methylamino)propanamido)-3-(methylthio)butanamido)-3-oxo-3-(((R)-1,2,3,4-tetrahydronaphthalen-1-yl)amino)propyl)phenyl)terephthalamide]	7.86	8.54
CN[C@@H](C)C(=O)N[C@H](C(=O)N1C[C@@H](c2ccc(C[C@H](NC(=O)[C@@H](NC(=O)[C@H](C)NC)C(C)(C)SCCO)C(=O)N[C@@H]3CCCc4ccccc43)cc2)C[C@H]1C(=O)N[C@@H]1CCCc2ccccc21)C(C)(C)C [Example 2, (2S,4R)-1-((S)-3,3-Dimethyl-2-((S)-2-(methylamino)propanamido)butanoyl)-4-(4-((S)-2-((R)-3-((2-hydroxyethyl)thio)-3-methyl-2-((S)-2-(methylamino)propanamido)butanamido)-3-oxo-3-(((R)-1,2,3,4-tetrahydronaphthalen-1-yl)amino)propyl)phenyl)-N—((R)-1,2,3,4-tetrahydronaphthalen-1-yl)pyrrolidine-2-carboxamide]	8.77	8.15
CN[C@@H](C)C(=O)N[C@H](C(=O)N[C@@H](Cc1ccc(C(=O)N[C@H]2C[C@@H](C(=O)N[C@@H]3CCCc4ccccc43)N(C(=O)[C@@H](NC(=O)[C@H](C)NC)C(C)(C)C)C2)cc1)C(=O)N[C@@H]1CCCc2ccccc21)C(C)(C)C [Example 5, (2S,4S)-4-(4-((S)-2-((S)-3,3-Dimethyl-2-((S)-2-(methylamino)propanamido)butanamido)-3-oxo-3-(((R)-1,2,3,4-tetrahydronaphthalen-1-yl)amino)propyl)benzamido)-1-((S)-3,3-dimethyl-2-((S)-2-(methylamino)propanamido)butanoyl)-N—((R)-1,2,3,4-tetrahydronaphthalen-1-yl)pyrrolidine-2-carboxamide]	8.05	7.86
CN[C@@H](C)C(=O)N[C@H](C(=O)N1C[C@@H](c2ccc(C[C@H](NC(=O)[C@@H](NC(=O)[C@H](C)NC)C(C)(C)SCC(=O)N(C)C[C@@H](O)CO)C(=O)N[C@@H]3CCCc4ccccc43)cc2)C[C@H]1C(=O)N[C@@H]1CCCc2ccccc21)C(C)(C)C [Example 1, (2S,4R)-4-(4-((S)-2-((R)-3-((2-(((R)-2,3-Dihydroxypropyl)(methyl)amino)-2-oxoethyl)thio)-3-methyl-2-((S)-2-(methylamino)propanamido)butanamido)-3-oxo-3-(((R)-1,2,3,4-tetrahydronaphthalen-1-yl)amino)propyl)phenyl)-1-((S)-3,3-dimethyl-2-((S)-2-(methylamino)propanamido)butanoyl)-N—((R)-1,2,3,4-tetrahydronaphthalen-1-yl)pyrrolidine-2-carboxamide]	8.77	7.91
CN[C@@H](C)C(=O)N[C@H](C(=O)N1C[C@@H](c2ccc(C[C@H](NC(=O)[C@@H](NC(=O)[C@H](C)NC)C(C)(C)SCC(=O)NC(CO)CO)C(=O)NC3CCCc4ccccc43)cc2)C[C@H]1C(=O)NC1CCCc2ccccc21)C(C)(C)C (stereo partly shown) [Example 6]	8.85	8.09
CN[C@@H](C)C(=O)N[C@H](C(=O)N[C@@H](Cc1ccc(NC(=O)c2ccc(C(=O)N[C@H]3C[C@@H](C(=O)N[C@@H]4CCCc5ccccc54)N(C(=O)[C@@H](NC(=O)[C@H](C)NC)C(C)(C)C)C3)cc2)cc1)C(=O)N[C@@H]1CCCc2ccccc21)C1CCCCC1 [Example 8, N^1-(4-((S)-2-((S)-2-Cyclohexyl-2-((S)-2-(methylamino)propanamido)acetamido)-3-oxo-3-(((R)-1,2,3,4-tetrahydronaphthalen-1-yl)amino)propyl)phenyl)-N^4-((3S,5S)-1-((S)-3,3-dimethyl-2-((S)-2-(methylamino)propanamido)butanoyl)-5-(((R)-1,2,3,4-tetrahydronaphthalen-1-yl)carbamoyl)pyrrolidin-3-yl)terephthalamide]	6.92	8.02
CN[C@@H](C)C(=O)N[C@H](C(=O)N[C@@H](Cc1ccc([C@H]2C[C@@H](C(=O)N[C@@H](COC)c3ccccc3)N(C(=O)[C@@H](NC(=O)[C@H](C)NC)C(C)(C)C)C2)cc1)C(=O)N[C@@H]1CCCc2ccccc21)C(C)(C)C [Example 7, (2S,4R)-4-(4-((S)-2-((S)-3,3-Dimethyl-2-((S)-2-(methylamino)propanamido)butanamido)-3-oxo-3-(((R)-1,2,3,4-tetrahydronaphthalen-1-yl)amino)propyl)phenyl)-1-((S)-3,3-dimethyl-2-((S)-2-(methylamino)propanamido)butanoyl)-N-((R)-2-methoxy-1-phenylethyl)pyrrolidine-2-carboxamide]	7.32	6.86
CN[C@@H](C)C(=O)N[C@H](C(=O)N[C@@H](Cc1ccc([C@H]2C[C@@H](C(=O)N[C@@H]3CCCc4ccccc43)N(C(=O)[C@@H](NC(=O)[C@H](C)NC)C(C)(C)C)C2)cc1)C(=O)N[C@@H]1CCCc2ccccc21)C(C)(C)C [Example 3, (2S,4R)-4-(4-((S)-2-((S)-3,3-Dimethyl-2-((S)-2-(methylamino)propanamido)butanamido)-3-oxo-3-(((R)-1,2,3,4-tetrahydronaphthalen-1-yl)amino)propyl)phenyl)-1-((S)-3,3-dimethyl-2-((S)-2-(methylamino)propanamido)butanoyl)-N—((R)-1,2,3,4-tetrahydronaphthalen-1-yl)pyrrolidine-2-carboxamide]	8.96	8.17
